Reference: patent publication US20090203693A1, “THERAPEUTIC AGENT FOR LIVER FIBROSIS” (Eisai R & D Management Co., Ltd., priority 2006, published 2009)

Columns and labels:
[1] = tested on: thioacetamide-induced hepatic fibrillization in Balb/cAnN female mice; assay: Mouse models of thioacetamide-induced cirrhosis (Azan staining of liver sections); assay type: in vivo; details: orally once daily at 1 or 3 mg/kg, thioacetamide i.p. twice a week for five weeks
Method: Thioacetamide (purchased from Tokyo Chemical Industry) was intraperitoneally administered at 150 mg/kg for the first week and 200 mg/kg for the next second to fifth weeks to Balb/cAnN female mice (purchased from Charles River Laboratories) twice a week. The test substance (Compound 3) was suspended in 0.5% methylcellulose aqueous solution and orally administered once daily at 1 or 3 mg/kg. Three days after the final thioacetamide administration, livers were removed from the mice and subjected to 10% neutral buffered formalin fixation followed by Azan staining (staining technique is described in “Medical Technology, supp., new technique for staining” (Ishiyaku Publisher, 1999)). The degree of fibrillization was examined by observation of the stained tissue sections. Experiments were conducted for a group without the administration of thioacetamide (6 examples), a group administered with thioacetamide but a test substance (3 examples), a group administered with Compound 3 at 1 mg/kg (6 examples) and a group administered with Compound 3 at 3 mg/kg (3 examples).

[2] = biological target: T1, His6-DDR2 (cytoplasmic domain of human DDR2) (Homo sapiens, UniProt Q16832); assay: Determination of DDR2 kinase inhibitory activity (His6-DDR2 tyrosine autophosphorylation, HTRF); assay type: biochemical; details: cell free, ATP, room temperature 10 minutes, HTRF detection; read-out: IC50 (concentration of the test substance required for inhibiting His6-DDR2 kinase activity by 50%)
T1 construct: cytoplasmic domain of DDR2 having 6 histidines fused to the N-terminus thereof; made in house; host or cells: Sf9 insect cells (baculovirus, pFastBac-HT)
T1 sequence (Q16832 422-855 limits assumed): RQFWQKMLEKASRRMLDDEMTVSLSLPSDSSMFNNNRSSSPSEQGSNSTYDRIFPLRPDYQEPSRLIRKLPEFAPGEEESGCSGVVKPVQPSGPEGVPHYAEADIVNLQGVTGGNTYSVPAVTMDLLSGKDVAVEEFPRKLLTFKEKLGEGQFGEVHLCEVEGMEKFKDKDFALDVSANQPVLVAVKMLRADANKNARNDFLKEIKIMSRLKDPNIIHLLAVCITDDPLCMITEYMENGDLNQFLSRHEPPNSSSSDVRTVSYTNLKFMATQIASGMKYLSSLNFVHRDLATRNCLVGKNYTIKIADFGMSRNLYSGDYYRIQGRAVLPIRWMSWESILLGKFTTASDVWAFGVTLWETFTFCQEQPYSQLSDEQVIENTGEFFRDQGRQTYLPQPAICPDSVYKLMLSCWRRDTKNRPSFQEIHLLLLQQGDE
Excerpt: A DNA fragment of cytoplasmic domain of human DDR2 (SEQ ID NO: 1) was isolated by PCR method (Expand High Fidelity (purchased from Roche)) according to a conventional technique using human brain cDNA library (purchased from Clontech) as a template and SEQ ID NO:3: 5′-[…]-3′ and SEQ ID NO:4: 5′-[…]-3′ (purchased from JBioS) as primers. This DNA fragment was inserted into a baculovirus transplacement vector (pFastBac™-HT (purchased from Invitrogen)) to obtain a recombinant construct. Insect cells (Spodoptera frugiperda 9 (Sf9 cells)) were transfected with this recombinant construct, thereby preparing a DDR2 recombinant baculovirus solution. For preparation of a recombinant baculovirus, we referred to a standard textbook (Bac-to-Bac Baculovirus Expression System (Invitrogen)).
The above-described DDR2 recombinant Baculovirus solution (0.07 mL) was added to Sf9 cells (7×10^7 cells) suspended in 2.5% FBS-containing SF-900II medium (purchased from Invitrogen) and shake-cultured at 27° C. for 72 hours. Then, this DDR2 recombinant Baculovirus-infected cells were subjected to centrifugation at 1,600 rpm at 4° C. for 6 minutes and the supernatant was removed. The precipitated infected cells were suspended in 10 mL of ice-cold PBS and centrifuged at 1,600 rpm at 4° C. for 6 minutes to remove the supernatant. The precipitated infected cells were suspended in 5 mL of ice-cold lysis buffer (50 mM Tris-HCl (pH 8.5), 5 mM 2-mercaptoethanol, 100 mM KCl, 1 mM PMSA, 1% (v/v) NP40), and centrifuged at 10,000 rpm at 4° C. for 10 minutes to obtain the supernatant.
This supernatant was added to a Ni-NTA agarose column (1.5 mL (purchased from Qiagen)) equilibrated with 5 mL of buffer A (20 mM Tris-HCl (pH 8.5), 5 mM 2-mercaptoethanol, 500 mM KCl, 20 mM imidazole, 10% (v/v) glycerol). This column was sequentially washed with 10 mL of buffer A, 2 mL of buffer B (20 mM Tris-HCl (pH8.5), 5 mM 2-mercaptoethanol, 1 M KCl, 10% (v/v) glycerol) and 2 mL of buffer A. Subsequently, 4 mL of buffer C (20 mM Tris-HCl (pH 8.5), 5 mM 2-mercaptoethanol, 100 mM KCl, 100 mM imidazole, 10% (v/v) glycerol) was added to obtain an eluate. This eluate was placed in a dialysis membrane (purchased from Spectrum Medical Industries) and dialyzed against 1 L of dialysis buffer (20 mM Tris-HCl, 10% (v/v) glycerol, 1 mM dithiothreitol, 0.1 mM Na3VO4, 0.1 mM EGTA) at 4° C. overnight. After dialysis, a portion of the eluate was subjected to SDS-PAGE and an amount of the recombinant protein detected at a molecular weight of about 40 kDa (His6-DDR2 (cytoplasmic domain of DDR2 having 6 histidines fused to the N-terminus thereof)) by Coomassie brilliant blue staining was quantitated using BSA as a standard substance.
To each well of a 96-well black half plate (purchased from Corning, Product No: 3694), 20 ng of His6-DDR2, 35 μL of 25 mM Hepes solution (pH 7.4) containing 14 mM MgCl2 and a test substance dissolved in dimethylsulfoxide (at 100-fold dilution with 1% BSA; 5 μL) were added to a total amount of 40 μL. To this, […] of 50 μM ATP (purchased with Sigma) diluted with 25 mM Hepes solution was added and incubated at room temperature for 10 minutes. Thereafter, 10 μL of 50 mM EDTA (pH 8.0) (purchased from Wako Pure Chemical Industries) was added to terminate the kinase reaction.
Tyrosine-phosphorylated DDR2 was detected using homogeneous time resolved fluorescence (HTRF) technique (Analytical Biochemistry, 269, 94-104, 1999). Specifically, to each well of the reaction solutions mentioned above, 20 μL of 25 mM Hepes solution containing 1 M KF, 4.75 ng of europium cryptate-labeled anti-phosphorylated tyrosine antibody (Eu(K)-PT66) and 100 ng of XL665-labeled anti-His antibody (XL665-Anti-His) was added. This reaction solution was incubated at room temperature overnight. Thereafter, fluorescence intensities of each well at 665 nm and 620 nm were measured under irradiation at an excitation wavelength of 337 nm using Discovery HTRF microplate analyzer (from Packard). […]

IC50 [2]: 0.18 nM
SMILES: COc1cc2nccc(Oc3ccc(NC(=O)Nc4nccs4)cc3)c2cc1OC [Compound 3, N-(2-thiazole)-N′-(4-((6,7-dimethoxy-4-quinolinyl)oxy)phenyl)urea]
degree of hepatic fibrillization (observation of stained tissue sections) [1]: suppressed hepatic fibrillization in a dose-dependent manner
